Test results taken from ChEMBL document CHEMBL4732045, “Amide Bond Bioisosteres: Strategies, Synthesis, and Successes” (J Med Chem, 2020).
Values after ≈ are worked out from the molar mass of the structure shown. Peptide text beside a SMILES is read from it. * marks the point of attachment. Hica(2S) = CC(C)C[C@H](O)C(=O)O; Boc = CC(C)(C)OC(=O)*

How the values were obtained:
[1] = target: Delta-type opioid receptor (Homo sapiens, UniProt P41143)
Mu-type opioid receptor = Mu-type opioid receptor (Homo sapiens, UniProt P35372)
[2] = target: Kappa-type opioid receptor (Homo sapiens, UniProt P41145)
MDA-MB-231 [3] = experiment: Antitumor activity against human MDA-MB-231 cells xenografted in nude mouse assessed as reduction in tumor volume at 70 mg/kg, ip administered for 15 days (reference value: 550 +/- 98.6 mm3); type: functional; conditions: time 15 day
MCF-10A = experiment: Antiproliferative activity against human MCF-10A cells incubated for 24 hrs by MTT assay; type: functional, cell-based
MDA-MB-231 [4] = experiment: cells; conditions: Homo sapiens, MDA-MB-231, 24 h
[5] = Antagonist activity at bombesin receptor in Sprague-Dawley rat pancreatic acini assessed as inhibition of bombesin-induced amylase release incubated for 30 mins; type: tissue-based, Pancreas
clinical = conditions: human
[6] = target: T1, Delta-type opioid receptor (Mus musculus, UniProt P32300); experiment: Inhibition of [3H]-Deltorphin 2 binding to mouse delta opioid receptor expressed in rat GH3 cell membranes by Cheng-Prusoff analysis; design: species or system Cell membrane
[7] = target: T1, Delta-type opioid receptor; experiment: Agonist activity at delta opioid receptor in mouse vas deferens assessed as inhibition of electric-field induced measured after 5 mins; type: tissue-based
[8] = Half life in Sprague-Dawley rat plasma measured after 60 mins by HPLC method; type: ADME, cell-free
Cannabinoid receptor 1 = Cannabinoid receptor 1 (Homo sapiens, UniProt P21554); experiment: Displacement of [3H]-CP55940 from human recombinant cannabinoid CB1 receptor expressed in HEK cells by Cheng-Prusoff analysis; type: cell-based
[9] = target: T2, Transient receptor potential cation channel subfamily V member 1 (Homo sapiens, UniProt Q8NER1); experiment: Antagonist activity at human recombinant TRPV1 expressed in HEK293 cells assessed as effect on intracellular calcium level by FLOU-4 dye based fluorescence spectrometry; type: cell-based
[10] = target: T2, Transient receptor potential cation channel subfamily V member 1
CAKI-2 = experiment: Cytotoxicity against human Caki-2 cells incubated for 96 hrs by MTT assay; type: functional, cell-based; conditions: CAKI-2, 96 h
A549 = experiment: Cytotoxicity against human A549 cells incubated for 96 hrs by MTT assay; type: functional, cell-based; conditions: A549, 96 h
HeLa = experiment: Cytotoxicity against human HeLa cells incubated for 96 hrs by MTT assay; type: functional, cell-based
PC-3 [11] = experiment: Cytotoxicity activity against human PC-3 cells incubated for 96 hrs by MTT method; type: functional, cell-based; conditions: PC-3, 96 h
HL-60 [12] = experiment: Cytotoxicity activity against human HL-60 cells incubated for 96 hrs by MTT assay; type: functional, cell-based; conditions: HL-60, 96 h
MDA-MB-231 [13] = experiment: Antitumor activity against human MDA-MB-231 cells xenografted in nude mouse assessed as reduction in tumor volume at 90 mg/kg, ip administered for 15 days (reference value: 550 +/- 98.6 mm3); type: functional; conditions: time 15 day
[14] = target: T1, Delta-type opioid receptor; experiment: Inhibition of [3H]-Deltorphin 2 binding to mouse delta opioid receptor expressed in HEK293 cell membranes incubated for 60 mins by Cheng-Prusoff analysis; design: species or system Cell membrane
Neprilysin = Neprilysin (Homo sapiens, UniProt P08473); experiment: Inhibition of NEP 24.11 (unknown origin) by fluorometric assay
[15] = Inhibition of [125]BH-CCK8 binding to guinea pig cortex CCKBR by radioligand binding assay; type: tissue-based, Cavia porcellus
[16] = target: Gastrin/cholecystokinin type B receptor (Homo sapiens) (UniProt P32239); experiment: Agonist activity at CCKBR in human NCI-H345 cells assessed as calcium release relative to control; type: functional, cell-based; conditions: filed as agonist
Human betaherpesvirus 5 = experiment: Antiviral activity against HCMV infected in human Hs68 cells by plaque reduction assay; type: functional, cell-based; conditions: Human betaherpesvirus 5, Hs68
[17] = target: Cholecystokinin receptor type A (Cavia porcellus, UniProt Q63931); experiment: Inhibition of [125]BH-CCK8 binding to guinea pig pancreas CCKAR by radioligand binding assay; type: tissue-based
[18] = target: Gastrin/cholecystokinin type B receptor (Homo sapiens, UniProt P32239); experiment: Agonist activity at CCKBR in human NCI-H345 cells assessed as calcium release; type: functional, cell-based
[19] = Inhibition of ACAT in cholesterol-fed New Zealand rabbit intestional microsomes using [1-14C]oleoyl-CoA as substrate preincubated for 5 mins followed by substrate addition and measured after 5 mins by liquid scintillation counting method; design: species or system Oryctolagus cuniculus, Intestine, Microsome
Rattus norvegicus = experiment: Hypocholesterolemic activity in cholestrol fed Sprague-Dawley rat assessed as decrease in total cholesterol at 0.05%, po administered for 1 week; type: functional; design: scale not given: the % may be the effect or the level left; conditions: time 1 weeks
[20] = test system: Human immunodeficiency virus 1; experiment: Antiviral activity against HIV1 3b isolate infected in human MT4 cells assessed as blockade of viral spread pretreated for 24 hrs followed by viral infection and subsequently treated with compound every 2 to 3 days post infection by ELISA; type: functional; conditions: Human immunodeficiency virus 1, 3b isolate, read-out: CIC95
[21] = target: Human immunodeficiency virus type 1 protease (Human immunodeficiency virus 1, UniProt Q72874); experiment: Inhibition of HIV1 protease
[22] = target: Protein-S-isoprenylcysteine O-methyltransferase (Homo sapiens, UniProt O60725); experiment: Inhibition of human isoprenylcysteine carboxyl methyltransferase expressed in Saccharomyces cerevisiae membranes using AFC as substrate in presence of 14C-SAM incubated for 30 min by scintillation counting method; type: cell membranes, Cell membrane
[23] = Half-life in Sprague-Dawley rat plasma at 50 uM measured by LC-MS/MS analysis; type: ADME, cell-free
[24] = Half-life in human plasma at 50 uM measured by LC-MS/MS analysis; type: ADME, cell-free
Interstitial collagenase = Interstitial collagenase (Homo sapiens, UniProt P03956); experiment: Inhibition of PMA-induced human skin fibroblast derived MMP1 by fluorometric assay; type: tissue-based
[25] = target: 72 kDa type IV collagenase (Homo sapiens, UniProt P08253); experiment: Inhibition of TNF-induced MMP2 isolated from human HT-1080 cell medium by fluorometric assay; type: tissue-based
Stromelysin-1 = Stromelysin-1 (Homo sapiens, UniProt P08254); experiment: Inhibition of human MMP3 by fluorometric assay
Matrilysin = Matrilysin (Homo sapiens, UniProt P09237); experiment: Inhibition of human MMP7 by fluorometric assay
[26] = Half life in rat at 30 mg/kg, po; type: ADME, organism-based; conditions: in vivo
[27] = Oral bioavailability in rat at 30 mg/kg; type: ADME, organism-based; conditions: in vivo
HT-29 = experiment: Cytotoxicity against human HT-29 cells incubated for 96 hrs by MTT assay; type: functional, cell-based; conditions: HT-29, 96 h
PC-3 [28] = experiment: Cytotoxicity against human PC-3 cells incubated for 96 hrs by MTT assay; type: functional, cell-based; conditions: PC-3, 96 h
HL-60 [29] = experiment: Cytotoxicity against human HL-60 cells incubated for 96 hrs by MTT assay; type: functional, cell-based; conditions: HL-60, 96 h
Integrin alpha-4/beta-1 = Integrin alpha-4/beta-1 (Homo sapiens, UniProt P05556+P13612); experiment: Displacement of 125I-VCAM-Ig from VLA4 in human Jurkat cells incubated for 30 mins by scintillation counting method; type: cell-based
[30] = Plasma clearance in rat; type: ADME
[31] = Oral bioavailability in Sprague-Dawley rat at 2 mg/kg; type: ADME, organism-based; conditions: in vivo

T1 sequence (P32300 whole entry): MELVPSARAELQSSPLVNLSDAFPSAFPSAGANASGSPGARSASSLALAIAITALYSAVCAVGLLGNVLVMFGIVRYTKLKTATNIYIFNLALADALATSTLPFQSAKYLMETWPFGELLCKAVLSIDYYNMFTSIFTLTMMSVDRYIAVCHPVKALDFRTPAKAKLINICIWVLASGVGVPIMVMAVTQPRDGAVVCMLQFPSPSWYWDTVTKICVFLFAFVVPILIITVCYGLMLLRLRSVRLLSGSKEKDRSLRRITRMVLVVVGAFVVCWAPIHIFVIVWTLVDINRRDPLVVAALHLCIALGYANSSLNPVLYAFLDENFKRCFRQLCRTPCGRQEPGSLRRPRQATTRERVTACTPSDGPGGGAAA
T2 sequence (Q8NER1 whole entry): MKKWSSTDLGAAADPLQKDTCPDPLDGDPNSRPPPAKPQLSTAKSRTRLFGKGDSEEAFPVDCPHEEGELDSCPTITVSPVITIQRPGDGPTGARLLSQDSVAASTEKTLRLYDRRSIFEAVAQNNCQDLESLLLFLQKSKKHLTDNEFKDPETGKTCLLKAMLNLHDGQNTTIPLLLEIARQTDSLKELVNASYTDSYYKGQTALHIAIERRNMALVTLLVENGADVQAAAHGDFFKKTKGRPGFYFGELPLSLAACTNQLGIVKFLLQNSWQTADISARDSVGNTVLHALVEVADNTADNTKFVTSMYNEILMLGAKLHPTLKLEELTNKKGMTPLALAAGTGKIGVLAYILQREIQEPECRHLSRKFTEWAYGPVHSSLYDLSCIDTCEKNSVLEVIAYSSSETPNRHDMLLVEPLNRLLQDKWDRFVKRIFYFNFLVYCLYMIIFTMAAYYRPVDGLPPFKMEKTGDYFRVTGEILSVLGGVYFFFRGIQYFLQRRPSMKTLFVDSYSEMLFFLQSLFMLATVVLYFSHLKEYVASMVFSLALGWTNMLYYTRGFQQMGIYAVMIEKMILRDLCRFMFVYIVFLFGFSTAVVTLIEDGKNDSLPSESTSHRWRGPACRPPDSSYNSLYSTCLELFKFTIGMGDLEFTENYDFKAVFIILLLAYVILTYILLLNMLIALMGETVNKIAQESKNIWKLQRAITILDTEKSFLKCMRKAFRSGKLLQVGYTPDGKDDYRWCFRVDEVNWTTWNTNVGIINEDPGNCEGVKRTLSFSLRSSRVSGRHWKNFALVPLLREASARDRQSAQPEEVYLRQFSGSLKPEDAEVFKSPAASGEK
Sequence of Kappa-type opioid receptor (P41145 whole entry): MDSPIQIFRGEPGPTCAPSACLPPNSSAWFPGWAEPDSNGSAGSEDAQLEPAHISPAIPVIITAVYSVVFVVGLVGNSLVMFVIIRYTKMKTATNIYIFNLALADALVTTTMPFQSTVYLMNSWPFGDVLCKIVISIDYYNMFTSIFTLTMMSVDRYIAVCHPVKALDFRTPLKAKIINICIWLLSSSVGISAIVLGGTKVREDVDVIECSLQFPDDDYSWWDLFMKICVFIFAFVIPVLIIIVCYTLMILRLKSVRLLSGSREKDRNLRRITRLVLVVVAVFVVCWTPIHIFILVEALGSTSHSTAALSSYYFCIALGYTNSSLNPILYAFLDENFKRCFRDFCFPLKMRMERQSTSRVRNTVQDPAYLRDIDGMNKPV
Sequence of Delta-type opioid receptor (Homo sapiens, UniProt P41143) (P41143 whole entry): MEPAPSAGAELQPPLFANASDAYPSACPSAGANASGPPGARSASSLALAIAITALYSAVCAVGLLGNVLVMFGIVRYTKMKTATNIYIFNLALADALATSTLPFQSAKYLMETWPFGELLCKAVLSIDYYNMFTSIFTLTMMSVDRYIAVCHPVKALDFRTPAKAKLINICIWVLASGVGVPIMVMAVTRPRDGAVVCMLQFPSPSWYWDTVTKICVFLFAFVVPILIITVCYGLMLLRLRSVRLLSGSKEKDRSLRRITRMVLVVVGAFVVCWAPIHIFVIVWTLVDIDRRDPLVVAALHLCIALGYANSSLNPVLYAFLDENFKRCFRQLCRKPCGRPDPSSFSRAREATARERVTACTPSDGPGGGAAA
Sequence of Mu-type opioid receptor (P35372 whole entry): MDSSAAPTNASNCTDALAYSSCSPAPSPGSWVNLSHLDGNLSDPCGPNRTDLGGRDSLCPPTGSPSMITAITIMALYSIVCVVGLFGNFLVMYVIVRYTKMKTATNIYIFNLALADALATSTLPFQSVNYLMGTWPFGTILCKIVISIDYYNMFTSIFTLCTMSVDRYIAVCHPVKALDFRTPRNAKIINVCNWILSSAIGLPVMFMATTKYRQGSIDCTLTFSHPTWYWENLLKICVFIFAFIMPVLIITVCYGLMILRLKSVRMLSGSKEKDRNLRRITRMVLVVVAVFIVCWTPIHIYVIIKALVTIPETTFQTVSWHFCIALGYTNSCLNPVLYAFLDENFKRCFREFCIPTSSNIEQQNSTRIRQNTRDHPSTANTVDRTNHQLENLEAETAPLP
Sequence of Gastrin/cholecystokinin type B receptor (Homo sapiens) (P32239 whole entry): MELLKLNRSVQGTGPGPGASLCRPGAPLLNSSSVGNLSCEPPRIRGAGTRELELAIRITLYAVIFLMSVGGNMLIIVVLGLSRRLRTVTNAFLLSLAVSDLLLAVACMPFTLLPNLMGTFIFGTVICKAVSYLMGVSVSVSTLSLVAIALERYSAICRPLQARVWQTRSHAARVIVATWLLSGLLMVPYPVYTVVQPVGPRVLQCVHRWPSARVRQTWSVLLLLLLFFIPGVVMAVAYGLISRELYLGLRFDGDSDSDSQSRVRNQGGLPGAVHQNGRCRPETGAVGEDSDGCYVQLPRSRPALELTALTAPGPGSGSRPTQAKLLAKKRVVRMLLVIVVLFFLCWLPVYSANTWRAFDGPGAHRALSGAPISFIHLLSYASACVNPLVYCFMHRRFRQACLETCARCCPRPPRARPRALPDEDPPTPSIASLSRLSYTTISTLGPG
Sequence of Neprilysin (P08473 whole entry): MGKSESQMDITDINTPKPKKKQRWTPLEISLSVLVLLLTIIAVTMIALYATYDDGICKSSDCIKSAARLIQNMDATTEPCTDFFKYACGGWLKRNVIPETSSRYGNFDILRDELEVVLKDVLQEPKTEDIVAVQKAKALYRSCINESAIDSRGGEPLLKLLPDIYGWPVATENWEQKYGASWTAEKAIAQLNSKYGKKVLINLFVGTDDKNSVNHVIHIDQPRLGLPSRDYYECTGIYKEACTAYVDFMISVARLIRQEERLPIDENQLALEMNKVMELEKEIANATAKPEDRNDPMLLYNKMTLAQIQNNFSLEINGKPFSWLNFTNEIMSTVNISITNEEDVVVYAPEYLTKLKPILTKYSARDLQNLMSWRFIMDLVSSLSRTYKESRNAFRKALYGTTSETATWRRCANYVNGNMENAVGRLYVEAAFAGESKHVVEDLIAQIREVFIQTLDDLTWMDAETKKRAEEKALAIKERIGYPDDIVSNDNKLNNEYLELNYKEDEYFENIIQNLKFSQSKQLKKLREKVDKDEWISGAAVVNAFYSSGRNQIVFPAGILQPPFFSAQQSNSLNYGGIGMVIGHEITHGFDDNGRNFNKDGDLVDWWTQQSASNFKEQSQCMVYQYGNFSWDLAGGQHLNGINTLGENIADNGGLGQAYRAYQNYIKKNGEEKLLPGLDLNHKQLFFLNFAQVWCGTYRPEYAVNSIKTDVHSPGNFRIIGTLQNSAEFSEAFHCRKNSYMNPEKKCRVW
Sequence of Interstitial collagenase (P03956 whole entry): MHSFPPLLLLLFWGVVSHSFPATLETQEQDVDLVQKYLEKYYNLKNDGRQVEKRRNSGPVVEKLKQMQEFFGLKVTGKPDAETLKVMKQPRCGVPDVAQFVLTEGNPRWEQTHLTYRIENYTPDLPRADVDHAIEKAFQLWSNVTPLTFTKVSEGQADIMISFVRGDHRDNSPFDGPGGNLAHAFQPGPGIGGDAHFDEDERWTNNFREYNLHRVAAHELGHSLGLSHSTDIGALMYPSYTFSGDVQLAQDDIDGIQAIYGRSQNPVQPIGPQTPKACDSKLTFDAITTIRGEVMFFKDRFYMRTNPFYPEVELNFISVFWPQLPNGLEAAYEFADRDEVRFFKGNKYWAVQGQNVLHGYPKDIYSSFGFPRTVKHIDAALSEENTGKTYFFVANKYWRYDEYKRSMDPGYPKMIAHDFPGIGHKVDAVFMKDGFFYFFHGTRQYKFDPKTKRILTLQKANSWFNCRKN
Sequence of Matrilysin (P09237 whole entry): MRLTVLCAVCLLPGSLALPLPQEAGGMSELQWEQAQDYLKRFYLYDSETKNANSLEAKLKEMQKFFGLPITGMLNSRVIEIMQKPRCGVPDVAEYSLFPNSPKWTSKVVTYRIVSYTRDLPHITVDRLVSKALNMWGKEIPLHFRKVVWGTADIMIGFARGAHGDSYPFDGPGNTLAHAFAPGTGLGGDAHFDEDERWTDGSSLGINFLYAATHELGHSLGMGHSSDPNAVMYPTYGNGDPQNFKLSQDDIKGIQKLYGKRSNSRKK
Sequence of 72 kDa type IV collagenase (P08253 whole entry): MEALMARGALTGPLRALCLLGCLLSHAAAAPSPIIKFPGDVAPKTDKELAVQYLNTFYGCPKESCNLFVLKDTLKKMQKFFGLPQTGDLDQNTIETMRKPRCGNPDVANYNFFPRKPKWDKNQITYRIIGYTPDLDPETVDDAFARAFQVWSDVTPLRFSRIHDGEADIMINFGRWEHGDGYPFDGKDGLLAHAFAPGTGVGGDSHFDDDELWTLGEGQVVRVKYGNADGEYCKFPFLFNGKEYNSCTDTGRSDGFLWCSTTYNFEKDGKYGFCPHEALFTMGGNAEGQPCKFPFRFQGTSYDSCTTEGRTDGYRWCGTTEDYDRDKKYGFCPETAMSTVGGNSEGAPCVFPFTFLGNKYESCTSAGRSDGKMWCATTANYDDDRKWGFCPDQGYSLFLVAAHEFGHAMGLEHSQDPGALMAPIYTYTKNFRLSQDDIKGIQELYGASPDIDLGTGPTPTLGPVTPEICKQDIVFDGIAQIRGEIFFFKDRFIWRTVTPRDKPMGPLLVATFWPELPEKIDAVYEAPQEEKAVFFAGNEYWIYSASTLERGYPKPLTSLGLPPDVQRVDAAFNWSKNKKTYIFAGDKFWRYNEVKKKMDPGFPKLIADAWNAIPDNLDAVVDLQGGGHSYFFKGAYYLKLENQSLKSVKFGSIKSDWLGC

CC(C)C[C@H](NC(=O)[C@H](Cc1ccccc1)NC(=O)CNC(=O)CN[C@@H]([C@@H](N)Cc1ccc(O)cc1)C(F)(F)F)C(=O)O
EC50 [1]: > 10000 nM | EC50 (Mu-type opioid receptor): > 10000 nM | EC50 [2]: > 10000 nM

CCCCS(=O)(=O)NCc1ccc2c(c1)OCO2
Activity (MDA-MB-231 [3]): 133.4 mm3 | IC50 (MCF-10A): 198000 nM | IC50 (MDA-MB-231 [4]): 87000 nM

CC(C)C[C@H](N)/C=C/NC(=O)[C@H](CC(C)C)NC(=O)[C@H](Cc1cnc[nH]1)NC(=O)CNC(=O)[C@@H](NC(=O)[C@H](C)NC(=O)[C@H](Cc1c[nH]c2ccccc12)NC(=O)[C@H](CCC(N)=O)NC(=O)[C@H](N)Cc1ccccc1)C(C)C
IC50 [5]: 6.7 nM

Cc1nnc2n1-c1ccc(Cl)cc1C(c1ccccc1)=NC2 [ALPRAZOLAM]
half-life (clinical): 6.3 h

CC(C)C[C@@H](C(=O)O)N(C)C(=O)[C@H](Cc1ccccc1)NC(=O)CNC(=O)CNC(=O)[C@@H](N)Cc1ccc(O)cc1
Ki [6]: 12.6 nM | EC50 [7]: 35 nM | half-life [8]: 0.178 h

CCCCCCCc1cn(Cc2cc(OC)c(O)cc2I)nn1
Ki (Cannabinoid receptor 1): 440 nM | Ki [9]: 0.69 nM | EC50 [10]: > 10000 nM

CCCCCCCCCCCCCCCCS(=O)(=O)N[C@@H](CO)[C@H](O)/C=C/c1ccc(Cl)cc1
IC50 (CAKI-2): 103000 nM | IC50 (A549): 96000 nM | IC50 (HeLa): 65000 nM | IC50 (PC-3 [11]): 123000 nM | IC50 (HL-60 [12]): 28000 nM

COc1cc(CNC(=O)CCCC/C=C/C(C)C)ccc1O [CAPSAICIN]
Activity (MDA-MB-231 [13]): 281.3 mm3 | IC50 (MDA-MB-231 [4]): 120000 nM

CC(C)C[C@H](NC(=O)[C@@H](/C=C(\F)CNC(=O)CNC(=O)[C@@H](N)Cc1ccc(O)cc1)Cc1ccccc1)C(=O)O
Ki [14]: 43 nM

O=C(O)CC(=O)N[C@@H](CS)Cc1ccccc1
Ki (Neprilysin): 2.3 nM

CSCC[C@H](NC(=O)[C@H](Cc1c[nH]c2ccccc12)NC(=O)OC(C)(C)C)C(=O)N[C@@H](CC(=O)O)C(=O)N[C@@H](Cc1ccccc1)C(N)=O
IC50 [15]: 25 nM | Emax [16]: 99%

CC(C)Oc1ccccc1CNC(=O)Nc1ccc2cnccc2n1
IC50 (Human betaherpesvirus 5): 0.03 µg/mL (≈ 0.0892 µM)

O=C(O)CC(=O)N[C@H](CS)Cc1ccccc1
Ki (Neprilysin): 210 nM

CC(C)C[C@H](N)CNC(=O)[C@H](CC(C)C)NC(=O)[C@H](Cc1cnc[nH]1)NC(=O)CNC(=O)[C@@H](NC(=O)[C@H](C)NC(=O)[C@H](Cc1c[nH]c2ccccc12)NC(=O)[C@H](CCC(N)=O)NC(=O)[C@H](N)Cc1ccccc1)C(C)C
IC50 [5]: 68.7 nM

CC(C)C[C@H](NC(=O)[C@H](Cc1ccccc1)NC(=O)CNC(=O)CN[C@H]([C@@H](N)Cc1ccc(O)cc1)C(F)(F)F)C(=O)O
EC50 [1]: > 10000 nM | EC50 (Mu-type opioid receptor): > 10000 nM | EC50 [2]: > 10000 nM

CC(C)C[C@H](NC(=O)OC(C)(C)C)C(=O)NCC(=O)N[C@@H](Cc1c[nH]c2ccccc12)C(=O)N[C@@H](CC(C)C)C(=O)N[C@@H](CC(=O)O)C(=O)N[C@@H](Cc1ccccc1)C(N)=O (Boc-LGWLDF-NH2)
IC50 [15]: 54 nM | IC50 [17]: 1600 nM | EC50 [18]: 40 nM | Emax [16]: 99%

CC(C)C[C@H](OC(=O)[C@H](Cc1ccccc1)NC(=O)CNC(=O)CNC(=O)[C@@H](N)Cc1ccc(O)cc1)C(=O)O (H-YGGF-{Hica(2S)})
Ki [6]: 11.9 nM | EC50 [7]: 140 nM | half-life [8]: 0.055 h

CCCCCCCCCCCCCCCCC(=O)Nc1c(C)cccc1C
IC50 [19]: 43 nM | Activity (Rattus norvegicus): 38%

O=C(N[C@@H](Cc1ccccc1)[C@@H](O)C[C@@H](Cc1ccccc1)C(=O)N[C@H]1c2ccccc2C[C@H]1O)O[C@H]1CCOC1
IC95 [20]: 3 nM | IC50 [21]: < 0.03 nM

CCCCCCCCCCCCCCCCCNC(=O)Nc1c(C)cccc1C
IC50 [19]: 160 nM | Activity (Rattus norvegicus): 55%

CC(C)=CCC/C(C)=C/CC/C(C)=C/CSC[C@H](NC(=O)c1ccccc1Oc1ccccc1)C(=O)O
IC50 [22]: 4300 nM

CC(C)C[C@H](NC(=O)[C@H](Cc1ccccc1)NC(=O)CNC(=O)C/C=C(\F)[C@@H](N)Cc1ccc(O)cc1)C(=O)O
half-life at 50 µM [23]: 4 h | half-life at 50 µM [24]: 4 h

C=CC[C@H](C(=O)NO)[C@@H](CC(C)C)C(=O)N[C@@H](Cc1ccc2c(c1)CCC2)C(=O)NC
IC50 (Interstitial collagenase): 2.2 nM | IC50 [25]: 1.8 nM | IC50 (Stromelysin-1): 12 nM | IC50 (Matrilysin): 11 nM | half-life [26]: 0.35 h | bioavailability [27]: 0%

CCCCCCCCCCCCCC(=O)N[C@@H](CO)[C@H](O)c1ccc([N+](=O)[O-])cc1
IC50 (CAKI-2): 107000 nM | IC50 (HT-29): 96000 nM | IC50 (A549): 64000 nM | IC50 (PC-3 [28]): 83000 nM | IC50 (HL-60 [29]): 28000 nM | IC50 (HeLa): 78000 nM | IC50 (PC-3 [11]): 123000 nM | IC50 (HL-60 [12]): 48000 nM

CC[C@@]1(C(=O)N[C@@H](Cc2ccc(-c3c(OC)cccc3OC)cc2)C(=O)O)CCN1S(=O)(=O)c1ccccc1
IC50 (Integrin alpha-4/beta-1): 0.07 nM | clearance [30]: 110 mL/min/kg | bioavailability [31]: < 10%
